# Data published in patent US20210308065A1, “REMOTE MODULATION OF BICONTINUOUS NANOSPHERES FOR CONTROLLED DELIVERY APPLICATIONS” (Northwestern University, priority 2020, published 2021).
# Key:
# [1] = In vitro BCN degradation and release of payloads after irradiation; assay type: physicochemical; details: centrifugation
# Method: In vitro BCN degradation and Release of payloads—In vitro degradation studies of PhA BCNs were performed under irradiation. Briefly, 200 μL of PhA BCNs (1 mg/ml) was transferred in to multiple wells of a 96 well black plate and then irradiated for 2.5 min at 50 mW/cm^2. The irradiated samples were immediately collected and centrifuged at 10,000×g for 10 min. After centrifugation, the supernatants and pellets were collected separately and analyzed using DLS and TEM as described above.
# In vitro release of calcein, FITC-BSA, ethyl eosin and PhA from BCNs was measured after irradiation. 200 μL of PBS containing PhA BCNs co-loaded with calcein or FITC-BSA, or PhA BCNs and ethyl eosin BCNs, were transferred in to multiple wells of a 96 well black plate and then irradiated at 50 mW/cm^2 for 1.25, 2.5, 5 and 10 minutes. Post irradiation samples were centrifuged at 10,000×g for 10 min and supernatants were collected and further analyzed for amount released as described earlier. For PhA BCNs and ethyl eosin BCNs, % transmittance was measured using an M3 plate reader.
# [2] = tested on: RAW 264.7 cells; experiment: MTT cell viability assay; assay type: cell-based, murine
# Method: Cell culture—RAW 264.7 cells (murine macrophage cell line) were acquired from American Type Culture Collection (ATCC, Rockville, Md., USA) were employed for cell culture experiments.
# MTT assay—RAW 264.7 cells (2×10^5 cells/mL, 100 μL) were plated in each well of a black 96-well plate and adhered overnight. The adhered cells were treated with free PhA (DMSO: PBS, 1:3) or PhA loaded BCNs (PBS) or CT BCNs or PhA-CT BCNs and incubated for 4 h. […] Post irradiation, cells were incubated for predetermined time intervals and then added with MTT (5 mg/mL in PBS, 10 μL). After 4 h MTT incubation with cells, formazan crystal deposition in each well was dissolved in DMSO (200 μL) and the absorbance was measured at 560 nm. All the samples were analyzed in quadruplicates.
# The percentage cell viability was calculated as:
# % cell viability=(OD of treated sample/OD of untreated sample)*100.
# [3] = Encapsulation efficiency in PEG-b-PPS BCNs; assay type: physicochemical; details: in PEG-b-PPS BCNs by FNP; hydrophilic cargo co-encapsulated with PhA
# Method: Formation of PEG-b-PPS BCNs—BCNs were formed by flash nanoprecipitation (FNP) technique using a hand-driven CIJ mixer as described previously.^3, 14 10 mg of PEG-b-PPS polymer was dissolved in 500 μL of tetrahydrofuran (THF) and was impinged against 500 μL of Milli-Q water. After impingement the nascent BCNs were diluted in a 1.5 mL reservoir of Milli-Q water. THF was removed by vacuum desiccation overnight, resulting in a 5 mg/mL BCN formulation in water. In cases where hydrophobic cargo was loaded into BCNs, the cargo was dissolved along with the 10 mg of PEG-b-PPS polymer in the 500 μL of THF used for impingement. In cases where hydrophilic cargo was loaded into BCNs, the cargo was dissolved in the 500 μL of water used for impingement.
# Loading and determination of encapsulation efficiency—The loading of hydrophilic molecules (Calcein, FITC-BSA, BODIPY-BSA) or hydrophobic molecules (Pheophorbide A or Camptothecin) in to BCNs was performed using FNP technique as stated above. Here, 500 μL of Calcien (1 mM) or fluorophore-BSA (2 mg/mL) in water was impinged against 500 μL of Pheophorbide A (0.2 mg/ml) or Camptothecin (0.6 mg/ml) in THF into an aqueous reservoir to form BCNs. After removal of THF via desiccation, BCNs were washed two times with distilled water by centrifugation (10,000×g, 10 min) to remove all the unencapsulated payloads and further resuspended in PBS or water for analysis. The amount of Pheophorbide A was determined by calculating absorbance at 666 nm. Calcein, FITC/BODIPY-BSA, and Camptothecin loading was analyzed by measuring fluorescence intensities at 470/509, 495/525, and 359/434 (excitation/emission, nm), respectively.
# [4] = cited from earlier work
# [5] = tested on: DN1 T cells; experiment: Vaccination with BMDC treated ex vivo with MA or MA BCN, DN1 T cell activation and proliferation; assay type: in vivo, hCD1Tg mice; details: 1 or 6 weeks after intratracheal vaccination; MA BCN vs MA pulsed BMDC
# Description: One week before the 1 and 6 week timepoints, 3e6 DN1 T cells were adoptively transferred intravenously. DLN, lung, and spleen were obtained.
compound,measurement,setting,value
CCOC(=O)c1ccccc1-c1c2cc(Br)c(=O)c(Br)c-2oc2c(Br)c([O-])c(Br)cc12.[K+] [ethyl eosin],Release of photo-oxidizer into the supernatant after irradiation of loaded BCNs,[1],comparably ineffective
"CC[C@@]1(O)C(=O)OCc2c1cc1n(c2=O)Cc2cc3ccccc3nc2-1 [free camptothecin, camptothecin]",Cytotoxicity (MTT viability),"[2]; free drug, camptothecin 0.63 μg/mL, 48 h",significantly more cytotoxic than non-irradiated CT-PhA-BCNs
same,Cytotoxicity (MTT viability),"[2]; non-irradiated, 24 h, three camptothecin concentrations (0.63, 1.56, 3.1 μg/mL)",dose-dependent cytotoxicity at 24 h
same,Cytotoxicity (MTT viability),"[2]; non-irradiated, 48 h, three camptothecin concentrations",high cytotoxicity regardless of concentration at 48 h
FITC-BSA: fluorescein-tagged bovine serum albumin,Encapsulation efficiency,[3],34±4%
pheophorbide A [PhA],Encapsulation efficiency,[3],80.7±2.2%
same,Release of photo-oxidizer into the supernatant after irradiation of loaded BCNs,[1],significantly greater amounts than the comparably ineffective ethyl eosin
same,Cell viability (MTT),"[2]; RAW 264.7 cells, with irradiation vs non-irradiated, 12 h after irradiation",significant cell death
same,logP,[4],6.93
O=C(O)CN(CC(=O)O)Cc1cc2c(cc1O)Oc1cc(O)c(CN(CC(=O)O)CC(=O)O)cc1C21OC(=O)c2ccccc21 [calcein],Encapsulation efficiency,[3],6.7±1.9%
mycolic acid [MA],Activation and proliferation of DN1 T cells after vaccination with treated BMDC,[5],"differences in activation and proliferation of DN1 T cells 6 weeks after vaccination, but not 1 week after vaccination"
